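Results reflect a 48-hour exposure of cells in 96-well plates to compound at five concentrations. TGI: concentration producing complete growth inhibition.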
Key:
Test in all cases: NCI anticancer screen, dose series, 48 h
786-0 renal = tested on: 786-0 renal
A498 renal = tested on: A498 renal
A549 NSCLC = tested on: A549 NSCLC
ACHN renal = tested on: ACHN renal
CAKI-1 renal = tested on: CAKI-1 renal
CCRF-CEM leukemia = tested on: CCRF-CEM leukemia
COLO 205 colon = tested on: COLO 205 colon
DLD-1 colon = tested on: DLD-1 colon
DMS 114 small cell lung = tested on: DMS 114 small cell lung
EKVX NSCLC = tested on: EKVX NSCLC
HCC-2998 colon = tested on: HCC-2998 colon
HCT-116 colon = tested on: HCT-116 colon
HCT-15 colon = tested on: HCT-15 colon
HL-60(TB) leukemia = tested on: HL-60(TB) leukemia
HOP-18 NSCLC = tested on: HOP-18 NSCLC
HOP-62 NSCLC = tested on: HOP-62 NSCLC
HOP-92 NSCLC = tested on: HOP-92 NSCLC
HT29 colon = tested on: HT29 colon
IGROV1 ovarian = tested on: IGROV1 ovarian
K-562 leukemia = tested on: K-562 leukemia
KM12 colon = tested on: KM12 colon
LOX IMVI melanoma = tested on: LOX IMVI melanoma
LXFL 529 NSCLC = tested on: LXFL 529 NSCLC
M14 melanoma = tested on: M14 melanoma
MALME-3M melanoma = tested on: MALME-3M melanoma
MOLT-4 leukemia = tested on: MOLT-4 leukemia
NCI-H226 lung = tested on: NCI-H226 lung
NCI-H23 lung = tested on: NCI-H23 lung
NCI-H460 lung = tested on: NCI-H460 lung
NCI-H522 lung = tested on: NCI-H522 lung
OVCAR-4 ovarian = tested on: OVCAR-4 ovarian
OVCAR-5 ovarian = tested on: OVCAR-5 ovarian
OVCAR-8 ovarian = tested on: OVCAR-8 ovarian
RPMI-8226 leukemia = tested on: RPMI-8226 leukemia
RXF-631 renal = tested on: RXF-631 renal
SF-268 CNS = tested on: SF-268 CNS
SF-295 CNS = tested on: SF-295 CNS
SF-539 CNS = tested on: SF-539 CNS
SK-MEL-2 melanoma = tested on: SK-MEL-2 melanoma
SK-MEL-28 melanoma = tested on: SK-MEL-28 melanoma
SK-MEL-5 melanoma = tested on: SK-MEL-5 melanoma
SK-OV-3 ovarian = tested on: SK-OV-3 ovarian
SN12C renal = tested on: SN12C renal
SNB-75 CNS = tested on: SNB-75 CNS
SNB-78 CNS = tested on: SNB-78 CNS
SR leukemia = tested on: SR leukemia
SW-620 colon = tested on: SW-620 colon
TK-10 renal = tested on: TK-10 renal
U251 CNS = tested on: U251 CNS
UACC-257 melanoma = tested on: UACC-257 melanoma
UACC-62 melanoma = tested on: UACC-62 melanoma
UO-31 renal = tested on: UO-31 renal
XF 498 CNS = tested on: XF 498 CNS

Measured: TGI

CCOC(=O)/C(=C/c1ccc(C(F)(F)F)cc1)N(CC)CC
> 100 µM: 786-0 renal | A498 renal | A549 NSCLC | ACHN renal | CAKI-1 renal | CCRF-CEM leukemia | COLO 205 colon | DLD-1 colon | DMS 114 small cell lung | EKVX NSCLC | HCC-2998 colon | HCT-116 colon | HCT-15 colon | HL-60(TB) leukemia | HOP-18 NSCLC | HOP-62 NSCLC | HOP-92 NSCLC | HT29 colon | IGROV1 ovarian | K-562 leukemia | KM12 colon | LOX IMVI melanoma | LXFL 529 NSCLC | M14 melanoma | MALME-3M melanoma | MOLT-4 leukemia | NCI-H226 lung | NCI-H23 lung | NCI-H460 lung | NCI-H522 lung | OVCAR-4 ovarian | OVCAR-5 ovarian | OVCAR-8 ovarian | RPMI-8226 leukemia | RXF-631 renal | SF-268 CNS | SF-295 CNS | SF-539 CNS | SK-MEL-2 melanoma | SK-MEL-28 melanoma | SK-MEL-5 melanoma | SK-OV-3 ovarian | SN12C renal | SNB-75 CNS | SNB-78 CNS | SR leukemia | SW-620 colon | TK-10 renal | U251 CNS | UACC-257 melanoma | UACC-62 melanoma | UO-31 renal | XF 498 CNS

From PubChem BioAssay (NCI)
